Molecules are shown by their SMILES.

26 compounds from BindingDB's records for doi:10.1021/jm00082a020 (Bristol-Myers Squibb Pharmaceutical Research Institute, 1992) can be followed below.

The nature of the first experiment: In vitro ability to displace the specific binding of [3H]diltiazem to diltiazem receptor in guinea pig skeletal muscle.
What is called Kd is the equilibrium constant for the complex coming apart. As for `CCc1ccc([C@@H]2Cc3c(cccc3C(F)(F)F)N(CCN(C)C)C(=O)[C@@H]2C)cc1`, the affinity, expressed as Kd, was 1000 nM. As to `C=CCN(C)CCN1C(=O)[C@H](OC(C)=O)[C@H](c2ccc(OC)cc2)Cc2c1cccc2C(F)(F)F`, the affinity, expressed as Kd, was 420 nM. The same measure, in the same setting: under `COc1ccc([C@@H]2Cc3c(cccc3C(F)(F)F)N(CCN(C)C(C)C)C(=O)[C@@H]2C)cc1` stands 130 nM; under `CNC(=O)CN1C(=O)[C@H](OC(C)=O)[C@H](c2ccc(OC)cc2)Cc2c1cccc2C(F)(F)F`, 15000 nM; under `COc1ccc([C@@H]2Cc3c(ccc(Br)c3OC)N(CCN(C)C)C(=O)[C@@H]2C)cc1`, 120 nM. Same read-out and setting: under `CNCCN1C(=O)[C@H](OC(C)=O)[C@H](c2ccc(OCCOC)cc2)Cc2c1cccc2C(F)(F)F` stands 5800 nM.

`COc1ccc([C@@H]2Cc3c(cccc3C(F)(F)F)N(CCN(C)C(C)=O)C(=O)[C@@H]2O)cc1` gave a Kd of 13000 nM. For the compound `COc1ccc([C@@H]2Cc3c(OC)cccc3N(CCN(C)C)C(=O)[C@@H]2OC(C)=O)cc1`, binding was put at a Kd of 1800 nM. The same measure, in the same setting: under `COc1ccc([C@@H]2Cc3c(cccc3C(F)(F)F)N(CCN(C)C)C(=O)[C@@H]2C)cc1OC` stands 2000 nM; under `C[C@H]1C(=O)N(CCN(C)C)c2cccc(C(F)(F)F)c2C[C@H]1c1ccc(O)cc1`, 1600 nM.

Consider `CC[C@H]1C(=O)N(CCN(C)C)c2cccc(C(F)(F)F)c2C[C@H]1c1ccc(OC)cc1`, for which the Kd was found to be 600 nM. Still for that read-out and setting: as for `CNCCN1C(=O)[C@H](OC(C)=O)[C@H](c2ccc(OC)cc2)Cc2c1cccc2C(F)(F)F`, the figure is 160 nM. The compound `COc1ccc([C@@H]2Cc3c(cccc3C(F)(F)F)N(CC[N+](C)(C)C)C(=O)[C@@H]2C)cc1` came in with a Kd of 840 nM. Still for that read-out and setting: as for `CCC[C@H]1C(=O)N(CCN(C)C)c2ccccc2C[C@H]1c1ccc(OC)cc1`, the figure is 250 nM; as for `COc1ccc([C@@H]2Cc3c(ccc(Br)c3OC)N(CCN(C)C)C(=O)[C@@H]2OC(C)=O)cc1`, 120 nM. On the same count and under the same terms, under `COc1ccc([C@@H]2Cc3c(C(=O)OCc4ccccc4)cccc3N(CCN(C)C)C(=O)[C@@H]2OC(C)=O)cc1` stands 1400 nM; under `C#CCN(C)CCN1C(=O)[C@H](OC(C)=O)[C@H](c2ccc(OC)cc2)Cc2c1cccc2C(F)(F)F`, 1800 nM. Still for that read-out and setting: as for `COc1ccc([C@@H]2Cc3ccccc3N(CCN(C)C)C(=O)[C@@H]2OC(C)=O)cc1`, the figure is 5100 nM; as for `CNc1ccc([C@@H]2Cc3c(cccc3C(F)(F)F)N(CCN(C)C)C(=O)[C@@H]2C)cc1`, 570 nM; as for `COc1ccc([C@@H]2Cc3c(cccc3C(F)(F)F)N(CCN(C)C)C(=O)[C@@H]2O)cc1`, 660 nM. For `CSc1ccc([C@@H]2Cc3c(cccc3C(F)(F)F)N(CCN(C)C)C(=O)[C@@H]2C)cc1`, binding was characterised by a dissociation constant (Kd) of 1100 nM. Still for that read-out and setting: as for `COc1ccc([C@@H]2Cc3c(cccc3C(F)(F)F)N(CC(C)N(C)C)C(=O)[C@@H]2C)cc1` (stereo partly specified), the figure is 320 nM; as for `CCCN(C)CCN1C(=O)[C@H](OC(C)=O)[C@H](c2ccc(OC)cc2)Cc2c1cccc2C(F)(F)F`, 520 nM. On the same count and under the same terms, under `COc1ccc([C@@H]2Cc3c(OC)cccc3N(CCN(C)C)C(=O)[C@@H]2C)cc1` stands 400 nM.

`COc1ccc([C@@H]2Cc3c(cccc3C(F)(F)F)N(CCN(C)CCCCc3ccccc3)C(=O)[C@@H]2OC(C)=O)cc1` came in with a Kd of 220 nM.

Assay in a further experiment: as above
The source holds these as a separate data set.
`COc1ccc([C@@H]2Cc3c(cccc3C(F)(F)F)N(C(C)CN(C)C)C(=O)[C@@H]2C)cc1` (stereo partly specified) gave a Kd of 540 nM. This counts as sub-micromolar.
